Experiments:
MtIOMT4 = assay: OMT assays with purified recombinant MtIOMT4 (relative activity; HPLC of products); format: biochemical, Medicago truncatula; details: for Relative activity, MtIOMT4: 50 μM S-adenosyl methionine, 100 μM acceptor substrate, most converted substrate = 100%
Excerpt: (§1) Cloning of MtIOMT5 (corresponding to TC 100926, TIGR MtGI v.8) was as described previously (Liu et al., 2005). To obtain a full-length cDNA for MtIOMT2, specific primers designed based upon the M. truncatula genomic sequence were used to amplify the MtIOMT2 coding sequence from M. truncatula root cDNA. The amplified product was cloned into the pGEM®-T easy vector (Promega, Madison Wis.) and sequenced to confirm its identity. MtIOMTs were cloned into the pET28a vector (EMD Biosciences, Inc., San Diego, Calif.) using PCR-based amplification with primers designed to introduce EcoRI and XhoI restriction sites; BamHI and XhoI sites were used for cloning MtIOMT6 due to the presence of an internal EcoRI site in this particular cDNA. Because the EST for MtIOMT8 was missing a start codon, the primer designed to clone MtIOMT8 into pET28a contained an additional 2-nucleotide insertion to generate an ATG start site. All MtIOMTs were expressed as translational fusions to an N-terminal His-tag. Expression of MtIOMTs in E. coli BL21(DE3) and purification by Ni^2+-NTA chromatography were as described (Zubieta et al., 2001). Proteins were dialyzed against 20 mM Tris pH 8.0, 100 mM NaCl, 10% (v/v) glycerol, and 14 mM β-mercaptoethanol. Protein concentration was determined by Bradford assay using BSA as a standard (Bradford, 1976).
(§2) Reactions (200 μl) were performed in 0.1 M potassium phosphate, pH 7.4, 10% (w/v) sucrose, 14 mM β-mercaptoethanol with 10 μM protein, 0.5 mM S-adenosyl-L-methionine, and 80 μM phenolic substrates. All substrates were purchased from Indofine (Hillsborough, N.J.) except 6,7-dihydroxy-4′-methoxyisoflavone, dihydrodaidzein, and vestitol, which were purchased from Apin (Oxfordshire, UK). […] OMT assays were incubated at 30° C. for 2 h and extracted with ethyl acetate. Ethyl acetate extracts were dried under N2 and the resultant material was resuspended in 50-100 μl of methanol. Samples were analyzed on an Agilent 1100 HPLC, equipped with a quaternary pump (model #G1311A), a degasser (model #G1322A), an autosampler (model #G1313A), and a diode array detector (model #G1315A). Samples of 20 μl were applied to an ODS2 reverse-phase column (5 μm particle size, 4.6×250 mm) and eluted in 1% (v/v) phosphoric acid with an increasing gradient of acetonitrile (0-5 min, 25%; 5-35 min, 25-50%; 35-39 min, 50-100%) at a flow rate of 1 ml/min. To resolve the 4′-O-methylated and 7-O-methylated products of genistein, samples were applied to a Phenomenex SYNERGI Polar-RP 80 Å column (4 μm particle size, 4.6×250 mm) and eluted in water with an increasing gradient of acetonitrile (0-5 min, 20%; 5-17 min, 20-38%; 17-33 min, 38%; 33-45 min, 38-56%; 45-46 min, 56-100%) at a flow rate of 1 ml/min. Chiral chromatography was performed as described (Liu et al., 2005).
For determination of specific activities, reactions (100 μl) were performed in 0.1 M potassium phosphate, pH 7.4, 10% (w/v) sucrose, 14 mM β-mercaptoethanol with 0.2-μg protein, 50 μM S-adenosyl-L-methionine (0.025 μCi ^14C-SAM per reaction), and 100 μM substrate. Reactions were incubated at 30° C. for 15-25 min and stopped by addition of 4 μl of 1N HCl. Products were extracted into 500 μl of ethyl acetate and 400 μl was used for liquid scintillation counting. […]

MtIOMT5 = target: T1, MtIOMT5 (Medicago truncatula, UniProt Q29U70); assay: OMT assays with purified recombinant MtIOMT5 (relative activity; HPLC/MS of products); format: biochemical; details: for Relative activity, MtIOMT5: 50 μM S-adenosyl methionine, 100 μM acceptor substrate, most converted substrate = 100%; for Position of methylation / reaction products, MtIOMT5: HPLC against standards, tandem MS
T1 construct: His-tag (N); made in house; host or cells: E. coli BL21(DE3)
T1 sequence (Q29U70 1-364): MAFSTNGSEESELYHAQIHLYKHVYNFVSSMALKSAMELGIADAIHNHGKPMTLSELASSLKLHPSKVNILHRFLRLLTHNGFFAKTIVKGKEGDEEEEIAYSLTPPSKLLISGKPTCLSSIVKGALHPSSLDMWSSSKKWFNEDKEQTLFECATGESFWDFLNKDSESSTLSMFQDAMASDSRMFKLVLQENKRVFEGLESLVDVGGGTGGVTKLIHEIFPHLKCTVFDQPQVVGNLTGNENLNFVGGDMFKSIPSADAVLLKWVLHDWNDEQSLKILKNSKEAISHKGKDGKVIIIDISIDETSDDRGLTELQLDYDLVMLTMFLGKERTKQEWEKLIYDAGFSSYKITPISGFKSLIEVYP
Excerpt: as §1, §2
(§3) For determination of specific activities, reactions (100 μl) were performed in 0.1 M potassium phosphate, pH 7.4, 10% (w/v) sucrose, 14 mM β-mercaptoethanol with 0.2-μg protein, 50 μM S-adenosyl-L-methionine (0.025 μCi ^14C-SAM per reaction), and 100 μM substrate. Reactions were incubated at 30° C. for 15-25 min and stopped by addition of 4 μl of 1N HCl. Products were extracted into 500 μl of ethyl acetate and 400 μl was used for liquid scintillation counting.
An HP 1100 series II LC system (Hewlett-Packard, Palo Alto, Calif.) with a photodiode array detector was coupled to a Bruker Esquire ion-trap mass spectrometer (ITMS) equipped with an electrospray ionization source. A reverse phase, C18, 5 μm, 4.6×250 mm column (J. T. Baker, Phillipsburg, N.J.) was used for separations. The mobile phase consisted of 0.1% (v/v) acetic acid using linear gradients of 5-90% acetonitrile (v/v) in 70 min. The flow rate was 0.8 ml/min, and the temperature of the column was kept at 28° C. Both positive- and negative-ion mass spectra were acquired. […]

MtIOMT7 = assay: OMT assays with purified recombinant MtIOMT7 (relative activity; HPLC/MS of products); format: biochemical, Medicago truncatula; details: for Relative activity, MtIOMT7: 50 μM S-adenosyl methionine, 100 μM acceptor substrate, most converted substrate = 100%
Excerpt: as §1, §2, §3
An HP 1100 series II LC system (Hewlett-Packard, Palo Alto, Calif.) with a photodiode array detector was coupled to a Bruker Esquire ion-trap mass spectrometer (ITMS) equipped with an electrospray ionization source. A reverse phase, C18, 5 μm, 4.6×250 mm column (J. T. Baker, Phillipsburg, N.J.) was used for separations. The mobile phase consisted of 0.1% (v/v) acetic acid using linear gradients of 5-90% acetonitrile (v/v) in 70 min. The flow rate was 0.8 ml/min, and the temperature of the column was kept at 28° C. Both positive- and negative-ion mass spectra were acquired.

SMILES	Relative activity, MtIOMT4 (MtIOMT4)	Relative activity, MtIOMT5 (MtIOMT5)	Relative activity, MtIOMT7 (MtIOMT7)	Activity of MtIOMT4 (in words) (MtIOMT4)	Position of methylation / reaction products, MtIOMT5 (MtIOMT5)	Amount of substrate methylated after 2 h (MtIOMT7; MtIOMT7, 2 h)
O=c1c(-c2ccc(O)cc2)coc2cc(O)c(O)cc12 [6,7,4′-trihydroxyisoflavone]	0%	0%	0%			
COc1ccc(-c2coc3cc(O)c(O)cc3c2=O)cc1 [6,7-dihydroxy,4′-methoxyisoflavone]	0%	0%	0%			
O=c1c(-c2ccc(O)c(O)c2)coc2cc(O)ccc12 [7,3′,4′-trihydroxyisoflavone]	0%	0%	≦1%			
O=c1cc(-c2ccc(O)cc2)oc2cc(O)ccc12 [7,4′-dihydroxyflavone]	0%	0%	0%			
O=c1cc(-c2ccc(O)cc2)oc2cc(O)cc(O)c12 [Apigenin]	0%	0%	0%			
O=c1oc2cc(O)ccc2c2oc3cc(O)ccc3c12 [Coumestrol]	100%	0%	1.5%	low level, trace activity		
O=c1c(-c2ccc(O)cc2)coc2cc(O)ccc12 [Daidzein]	0%	0%	0%			
O=C1c2ccc(O)cc2OCC1c1ccc(O)cc1 (centres unmarked) [Dihydrodaidzein]	0%	7.9%	84.1%		4′-methoxy, 7-methoxy, and 4′,7-dimethoxy products	
O=c1c(-c2ccc(O)cc2)coc2cc(O)cc(O)c12 [Genistein]	0%	0%	0%			
COc1cc2c(=O)c(-c3ccc(O)cc3)coc2cc1O [Glycitein]	0%	0%	≦1%			
O=c1c(O)c(-c2cc(O)c(O)c(O)c2)oc2cc(O)cc(O)c12 [Myricetin]	0%	0%	0%			
O=C1C[C@@H](c2ccc(O)cc2)Oc2cc(O)cc(O)c21 [Naringenin]	0%	≦1%	100%		methylated on the 4′-positions	Almost all
COc1ccc(C2COc3cc(O)ccc3C2)c(O)c1 (centres unmarked) [Vestitol]	43.8%	≦1%	3.4%	low level, trace activity		
